Assay results from US20020197233A1, “Methods of treating central nervous system ischemic or hemorrhagic injury using anti alpha4 integrin antagonists” (priority 1999, published 2002).

What was measured:
[1] = system: spontaneously hypertensive rats (SHRs); assay: Reversible middle cerebral artery occlusion (MCAO), infarct volume, spontaneously hypertensive rats; type: in vivo, rat; conditions: 300 ng/kg/min continuous subcutaneous infusion, vs vehicle treated controls, 24 h after induction of cerebral ischemia (1 h MCAO)
Description: (§1) Male Sprague Dawley (SD) or spontaneously hypertensive rats (SHRS) were anesthetized using isoflurane and the right middle cerebral artery (MCAO) occluded by insertion of a 4-0 nylon monofilament up the internal carotid artery to the origin of the middle cerebral artery (MCA) (Zea Longa et al, 1989 Stroke 20:84). After 1 h the filament was retracted, the ischemic territory reperfused and the animal allowed to recover. After 24 h the rats were sacrificed, at which time brains were removed and analyzed histologically to quantify infarct volume.
(§2) Groups of animals were treated with either vehicle (PBS) or the bradykinin B2 receptor antagonist Hoe 140 (Hoechst) by continuous subcutaneous infusion via osmotic mini-pumps. Primed mini osmotic pumps (Alza Corp.,) were implanted into the subcutaneous space at the scruff of the neck immediately prior to induction of cerebral ischemia. The pumps were loaded to release 300 ng/kg/min Hoe 140 and delivered compound or vehicle at a rate of 8 μl/h.
(§3) In a separate experiment groups of animals were treated with either vehicle (sterile isotonic saline), TA2 (mouse anti rat VLA4: Seikagaku America Inc.) or an isotype control antibody (mouse anti-human LFA3: obtained from Biogen, Inc.). All treatments were administered 24 h before surgery intravenously (2.5 mg/kg or appropriate volume of vehicle)
(§4) Vehicle treated control rats that underwent MCAO sustained extensive lesions throughout cortical and subcortical regions of the brain. The ischemic hemisphere was markedly swollen and significant behavioral deficits were observed (eg. hemiparesis resulting in rotation and limb weakness). Spontaneously hypertensive rats sustained more extensive and reproducible brain infarcts than Sprague Dawley rats subjected to the same surgical procedure. Infarct volumes are expressed as mean values+/−s.e.m. Statistical analysis was performed using an unpaired Students' t-test (* denotes p<0.05, ** denotes p<0.01).

[2] = system: Sprague Dawley (SD) rats; assay: Reversible middle cerebral artery occlusion (MCAO), infarct volume, Sprague Dawley rats; type: in vivo, rat; conditions: 300 ng/kg/min continuous subcutaneous infusion, vs vehicle treated controls, 24 h after induction of cerebral ischemia (1 h MCAO)
Description: as §1, §2, §3, §4

## Hoe 140
[1]
  reduction of cortical infarct volume: 43%
  reduction of subcortical infarct volume: 17%
  reduction of total infarct volume: 37%
[2]
  reduction of cortical infarct volume: 93%
  reduction of subcortical infarct volume: 24%
  reduction of total infarct volume: 57%
